Experimental data published in publication PMC5513037, “Examining the influence of specificity ligands and ATP-competitive ligands on the overall effectiveness of bivalent kinase inhibitors” (Proteome Science, 2017).

How the values were obtained:
UHMK1 = molecular target: T1, UHMK1 (Homo sapiens, UniProt Q8TAS1); test: KAM-matrix competition in K562 lysate; type: binding;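 for 0.001 uM KAM: median log10 fold change of treatment over DMSO control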;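 for 0.01 uM KAM: median log10 fold change of treatment over DMSO control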;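 for 0.1 uM KAM: median log10 fold change of treatment over DMSO control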;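 for 1 uM KAM: median log10 fold change of treatment over DMSO control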;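 for 10 uM KAM: median log10 fold change of treatment over DMSO control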
T1 construct: endogenous in cells; host or cells: K562
T1 sequence (Q8TAS1 1-419): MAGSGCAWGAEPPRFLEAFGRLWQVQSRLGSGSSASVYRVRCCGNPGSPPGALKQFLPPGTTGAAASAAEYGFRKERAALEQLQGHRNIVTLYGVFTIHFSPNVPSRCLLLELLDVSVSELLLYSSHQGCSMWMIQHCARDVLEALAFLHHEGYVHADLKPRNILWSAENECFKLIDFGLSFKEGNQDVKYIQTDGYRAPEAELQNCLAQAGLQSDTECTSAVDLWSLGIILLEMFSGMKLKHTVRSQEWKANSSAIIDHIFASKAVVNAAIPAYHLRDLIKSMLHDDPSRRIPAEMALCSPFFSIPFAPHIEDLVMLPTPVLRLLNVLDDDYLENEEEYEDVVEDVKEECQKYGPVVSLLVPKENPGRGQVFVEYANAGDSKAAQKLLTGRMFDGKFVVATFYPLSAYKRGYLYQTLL
Method: (§1) Supplement 12953_2017_125_MOESM1_ESM.zip/MS_Supp Info.xlsx, sheet "KAM" | column: 10 uM KAM; 1 uM KAM; 0.1 uM KAM; 0.01 uM KAM; 0.001 uM KAM; RB50

GAK = molecular target: T2, GAK (Homo sapiens, UniProt O14976); test: KAM-matrix competition in K562 lysate; type: binding
T2 construct: endogenous in cells; host or cells: K562 cell lysate
T2 sequence (O14976 1-1311): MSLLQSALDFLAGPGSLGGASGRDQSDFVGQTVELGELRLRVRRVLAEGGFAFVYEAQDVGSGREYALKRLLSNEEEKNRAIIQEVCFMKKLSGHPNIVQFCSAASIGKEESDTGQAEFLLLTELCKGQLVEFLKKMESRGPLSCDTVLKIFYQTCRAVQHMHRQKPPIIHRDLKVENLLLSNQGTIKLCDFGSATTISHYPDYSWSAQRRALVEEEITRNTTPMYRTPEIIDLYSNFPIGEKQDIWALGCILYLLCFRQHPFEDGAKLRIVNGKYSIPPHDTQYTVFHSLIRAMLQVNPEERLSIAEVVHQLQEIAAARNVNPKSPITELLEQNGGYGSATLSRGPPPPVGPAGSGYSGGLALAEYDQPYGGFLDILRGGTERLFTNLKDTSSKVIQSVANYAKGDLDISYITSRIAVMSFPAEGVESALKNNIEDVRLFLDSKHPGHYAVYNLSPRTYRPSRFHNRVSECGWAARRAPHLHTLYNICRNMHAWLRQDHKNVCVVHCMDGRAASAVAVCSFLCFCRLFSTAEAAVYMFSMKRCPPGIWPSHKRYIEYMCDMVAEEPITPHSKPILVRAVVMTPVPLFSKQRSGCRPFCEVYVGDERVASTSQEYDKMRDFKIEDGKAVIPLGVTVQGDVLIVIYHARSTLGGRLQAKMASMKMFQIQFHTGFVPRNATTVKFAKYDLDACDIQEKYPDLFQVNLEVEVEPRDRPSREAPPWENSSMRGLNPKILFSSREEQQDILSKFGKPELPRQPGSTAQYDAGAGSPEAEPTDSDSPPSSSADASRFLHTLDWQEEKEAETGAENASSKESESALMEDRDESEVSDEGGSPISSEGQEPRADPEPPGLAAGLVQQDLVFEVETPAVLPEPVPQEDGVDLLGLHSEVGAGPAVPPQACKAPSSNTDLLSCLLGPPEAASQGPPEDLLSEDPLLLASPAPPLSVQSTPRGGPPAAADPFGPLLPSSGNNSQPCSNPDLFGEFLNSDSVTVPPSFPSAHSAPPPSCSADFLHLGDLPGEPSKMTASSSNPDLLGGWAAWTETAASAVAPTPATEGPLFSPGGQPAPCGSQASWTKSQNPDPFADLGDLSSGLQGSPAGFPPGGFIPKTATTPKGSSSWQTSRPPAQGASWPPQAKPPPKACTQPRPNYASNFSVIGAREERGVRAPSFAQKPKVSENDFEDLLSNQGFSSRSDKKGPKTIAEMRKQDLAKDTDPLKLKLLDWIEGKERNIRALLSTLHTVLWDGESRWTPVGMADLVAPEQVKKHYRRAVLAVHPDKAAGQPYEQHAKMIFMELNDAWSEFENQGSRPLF
Method: as §1

N#CCc1ccc(Nc2nc(NCCCN)cc(Nc3cc(C4CC4)[nH]n3)n2)cc1 [KAM]
IC50 (UHMK1; KAM 0.001-10 uM, read-out: RB50 (the source's name)): > 10000 nM
0.001 uM KAM (UHMK1; relative to 0 uM KAM = 0): -0.05175
0.01 uM KAM (UHMK1; relative to 0 uM KAM = 0): -0.019
0.1 uM KAM (UHMK1; relative to 0 uM KAM = 0): 0.009765
1 uM KAM (UHMK1; relative to 0 uM KAM = 0): -0.08212
10 uM KAM (UHMK1; relative to 0 uM KAM = 0): -0.08774
median Log10 fold change (GAK; 0.001 uM KAM): -0.03137
median Log10 fold change (GAK; 0.01 uM KAM): -0.03807
median Log10 fold change (GAK; 0.1 uM KAM): -0.2019
median Log10 fold change (GAK; 1 uM KAM): -0.4109
median Log10 fold change (GAK; 10 uM KAM): -0.5049
IC50 (GAK; read-out: RB50 (the source's name)): 424 nM
